Data set [1] in a line: Hydrodynamic size and zeta potential of self-assembled nanoparticles (DLS). The format is physicochemical. To be noted: self-assembled in aqueous solution; for PDI: DLS; for Particle Size: hydrodynamic size by DLS. The method, then: To achieve self-assembly, each sample was dispersed in aqueous solution under sonication (Branson Ultrasonic, working frequency […] at room temperature) for 30 min. Thereafter, the sample was allowed to undergo self-assembly by keeping it undisturbed for another 30 min. The size and surface zeta potential of the self-assembled nanoparticles were analyzed using a Brookhaven NanoBrook (Holtsville, NY, USA) Omni particle size and zeta potential analyzer, respectively.

Data set [2] concerns HCT116 cells. Kind of data set: CellTiter-Blue cell viability assay, HCT116. The data set is classed as cell-based. The note with it: Homo sapiens, HCT-116, 24 h incubation. The method, then: (§1) The human non-small cell lung carcinoma cell lines A549 (ATCC CCL-185) were maintained in RPMI 1640 medium containing 9% bovine calf serum, penicillin, and streptomycin at 37 °C, 5% CO2. For all experiments, cells were seeded and allowed to attach overnight. The medium was then aspirated and replaced with that containing polyamine PG analogs at the indicated concentrations. Cells were incubated for the times indicated at 37 °C, 5% CO2. The HCT 116 (ATCC CCL-247) human colorectal carcinoma cell lines were grown in McCoy’s 5 A medium (Thermo Fischer Scientific, Waltham, MA, USA), supplemented with 10% FBS at 37 °C with 5% CO2 in a humidified chamber.
(§2) The cytotoxicity of the HPG analogs was evaluated in HCT116 and A549 cells by the Promega CellTiter Blue Cell viability assay. The cells were seeded in 96-well plates at a density of four thousand cells/well 24 h before the polyamine treatment. The original medium was replaced with serial dilutions of the PG analogs in a cell culture medium and incubated for another 24 h. The mixture of 100 μL cell culture medium and 20 μL CellTiter Blue reagent was added into each well after the removal of the media with polyamines. After 2 h of incubation, the fluorescence intensity [FI] was measured at λex/λem = 560/590 nm by a microplate reader (Molecular Devices, San Jose, CA, USA). The relative cell viability (%) was calculated as [FI]treated/[FI]untreated × 100. Polyamine concentration, causing a 50% decrease in the cell viability, was defined as IC50 and auto-calculated in GraphPad Prism 9.0.0 (Prism 9, San Diego, CA, USA) with the dose–response analysis.

Data set [3] has as its system A549 cells. Kind of data set: CellTiter-Blue cell viability assay, A549. The data set is classed as cell-based. To be noted: Homo sapiens, 24 h incubation. The method, then: as §1, §2
For orientation: Alamar Blue is a resazurin reagent that responds to reducing activity.

The nature of data set [4]: TEM imaging of self-assembled nanoparticles. The format is physicochemical. The method, then: A 10 µL volume of nanoparticle dispersion was meticulously placed on a plasma-treated copper grid (carbon-coated). After 5 min, the excess volume of nanoparticles was absorbed by a regular filter paper. The grid was then stained with 2% phosphotungstic acid (6 µL) for 1 min, and, similarly, the excess staining solution was absorbed by a regular filter paper. The grid was then allowed to dry in air for another 5 min. The image was captured under an FEI-Tecnai G2 transmission electron microscope (Hillsboro, OR, USA) at 80 kV, equipped with an AMT digital imaging system (Woburn, MA, USA).

The target of data set [5] is T1, purified recombinant human SMOX protein (Homo sapiens, UniProt Q9NWM0). Nature of the data set: SMOX activity assay (luminol-based chemiluminescence). The data set is classed as biochemical. To be noted: for IC50: purified recombinant human SMOX, pH 8.0, 37 °C; for fold activity compared to MDL72527, SMOX: ratio of IC50 values. The method, then:
SMOX activity was measured using a chemiluminescent enzyme-based assay, detecting the formation of H2O2 in the presence of HPG analogs as the substrate, as described. To measure the activity of these polyamines against SMOX, the enzyme (300 ng) in 0.083 M glycine buffer (pH 8.0) and the inhibitor (0–250 µM) were added to the luminol-HRP master mix and incubated at 37 °C for 2 min. PG was then added to the reaction mixture at a final concentration of 250 µM, vortexed for 3 s, and chemiluminescence was integrated over 40 s. Data were averaged and normalized to the blank reaction (no inhibitor) as % SMOX activity. Inactivated SMOX served as a negative control and was accounted for in the calculations.

The target in data set [6] is T1, purified recombinant human SMOX protein. Also on record: method as in PMID 33173604. The note with it: purified enzyme, reference inhibitor, ref [21], cited from earlier work.
Data set [7] relates to colon cancer cells. On the set-up: method as in PMID 19487545. The note with it: ref [10]; cited from earlier work.
Data set [8] relates to A549 xenograft. Also on record: method as in PMID 17464296, PMID 18301893, PMID 19487545. To be noted: in vivo A549 xenograft model; ref [1],[9],[10]; cited from earlier work.
The test system of data set [9] is small (NCI H82 and H69) and non-small (NCI A549 and H157) lung cancer cells. Also on record: method as in PMID 18301893. The note with it: ref [9]; cited from earlier work.

Several values for one entry are separate records, joined by “and”; a condition that tells them apart may be missing. Identical values can stand only once. Like-named read-outs stand apart in the source and are kept apart here.

T1 sequence (Q9NWM0 whole entry): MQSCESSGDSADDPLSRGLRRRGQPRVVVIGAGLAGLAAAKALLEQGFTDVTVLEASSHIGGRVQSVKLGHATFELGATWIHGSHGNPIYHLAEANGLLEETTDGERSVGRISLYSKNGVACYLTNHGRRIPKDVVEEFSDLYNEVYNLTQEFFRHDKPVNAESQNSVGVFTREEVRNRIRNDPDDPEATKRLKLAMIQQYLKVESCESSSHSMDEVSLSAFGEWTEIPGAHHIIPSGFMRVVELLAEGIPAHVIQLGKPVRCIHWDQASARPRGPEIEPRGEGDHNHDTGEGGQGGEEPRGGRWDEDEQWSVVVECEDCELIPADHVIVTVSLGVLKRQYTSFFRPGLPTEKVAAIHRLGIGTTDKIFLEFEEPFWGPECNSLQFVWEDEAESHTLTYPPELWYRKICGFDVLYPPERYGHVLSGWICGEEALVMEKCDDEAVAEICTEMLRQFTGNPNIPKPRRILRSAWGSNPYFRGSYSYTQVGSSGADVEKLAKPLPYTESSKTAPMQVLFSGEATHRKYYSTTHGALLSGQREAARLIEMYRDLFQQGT

Consider `CCCNCCCNC/C=C\CNCCCNCCC` [HPG-2, (Z)-N^1,N^1′-(but-2-ene-1,4-diyl)bis(N^3-propylpropane-1,3-diamine)], for which, in data set [1], the PDI turned out to be 0.21, the “Particle Size” value stood at 173 ± 7 nm and the “Zeta Potential” value stood at 27 mV. Moreover, the “Particle Size” value in data set [1] (listed as HPG2) is “around 173 nm”. This molecule also gave an IC50 in [2] of less than 1 µM. Also, the IC50 in [3] was less than 1 µM.
For `CCCCNCCCNC/C=C\CNCCCNCCCC` [HPG-3, (Z)-N^1,N^1′-(but-2-ene-1,4-diyl)bis(N^3-butylpropane-1,3-diamine)], in data set [1], the PDI is reported as 0.064, the “Particle Size” value came out at 186 ± 3 nm and the “Zeta Potential” value was 24 mV. The IC50 in [2] is 8 µM. The IC50 in [3] was greater than 10 µM.
Consider `CCCCCNCCCNC/C=C\CNCCCNCCCCC` [HPG-4, (Z)-N^1,N^1′-(but-2-ene-1,4-diyl)bis(N^3-pentylpropane-1,3-diamine)], for which, in data set [1], the PDI is on record as 0.15; the “Particle Size” value is 174 nm and 174 ± 3 nm; the “Zeta Potential” value is recorded as 15 mV. Further, the IC50 in data set [2] is greater than 10 µM. In addition, in [4], the “average size obtained from TEM” value is listed as 6 nm. Besides, 10 µM corresponded to half-maximal inhibition in data set [3] (IC50).
In the case of `CCCCCCNCCCNC/C=C\CNCCCNCCCCCC` [HPG-5, (Z)-N^1,N^1′-(but-2-ene-1,4-diyl)bis(N^3-hexylpropane-1,3-diamine)], the PDI in data set [1] amounted to 0.23. In data set [1], the “Particle Size” value was 158 ± 4 nm. Further, in data set [1], the “Zeta Potential” value is recorded as 16 mV. Also, the results for the IC50 in data set [2], in data set [5] and in [3] were 8 µM, 90 µM and 7 µM, respectively.
In data set [1], `CCCCCCCNCCCNC/C=C\CNCCCNCCCCCCC` [HPG-6, (Z)-N^1,N^1′-(but-2-ene-1,4-diyl)bis(N^3-heptylpropane-1,3-diamine)] showed a PDI of 0.17. In [1], the “Particle Size” value is 225 nm and 225 ± 6 nm. The “Zeta Potential” value in [1] is 22 mV. For the same molecule, the IC50 in data set [2] was found to be 3 µM; in data set [5], 30 µM; in [3] it was 3 µM. For the same molecule, in [4], the “average size obtained from TEM” value stood at 8 nm.
On to `CCCCCCCCNCCCNC/C=C\CNCCCNCCCCCCCC` [HPG-7, (Z)-N^1,N^1′-(but-2-ene-1,4-diyl)bis(N^3-octylpropane-1,3-diamine)], for which, in [1], the PDI is listed as 0.13, the “Particle Size” value is 318 ± 8 nm and the “Zeta Potential” value is 11 mV. In data set [2], this molecule registered an IC50 of 1 µM. Further, in [5], the IC50 was less than 10 µM and the “fold activity compared to MDL72527, SMOX” value is given as “around nine-fold more active than MDL 72,527”. The “average size obtained from TEM” value in data set [4] came out at 30 nm. The IC50 in data set [3] was less than 1 µM.
For the molecule `CCCCCCCCCNCCCNC/C=C\CNCCCNCCCCCCCCC` [HPG-8, (Z)-N^1,N^1′-(but-2-ene-1,4-diyl)bis(N^3-nonylpropane-1,3-diamine)], in data set [1], the PDI is recorded as 0.17 and the “Zeta Potential” value was 17 mV. In addition, the IC50 in data set [2] is less than 1 µM. In [5], the IC50 is less than 10 µM and the “fold activity compared to MDL72527, SMOX” value was “around nine-fold more active than MDL 72,527”. This molecule displayed an IC50 in [3] of 7 µM.
As for `C=C=CCNCCCCNCC=C=C` [MDL72527], the IC50 was 90 µM in [6] and roughly 90 µM in data set [6] (listed as MDL 72,527).
As to `CCNCCCNC/C=C\CNCCCNCC` [PG11047, (Z)-N^1,N^1′-(but-2-ene-1,4-diyl)bis(N^3-ethylpropane-1,3-diamine)], the “anticancer activity in colon cancer cells” value in data set [7] is “broad spectrum of anticancer activity”. Further, the “progression of established tumors” value in [8] is recorded as “significantly delay the progression of established tumors”. Moreover, the IC50 was 8 µM in data set [2] and greater than 10 µM in data set [3]. Also, the “growth inhibition of lung cancer cells in vitro” value in data set [9] is listed as “inhibits the growth”.

For orientation: IC50 means the concentration at which inhibition is half-maximal.

Source of the values: paper PMC9032695, “Self-Assembled Alkylated Polyamine Analogs as Supramolecular Anticancer Agents” (Molecules, 2022).
